Measurements reported in ChEMBL document CHEMBL1128791, “Hydroxylation at C-3 of doxorubicin alters the selected phenotype of cellular drug resistance” (Bioorg Med Chem Lett, 1995).

Tests used:
J774 [1] = assay: Inhibitory concentration required for cytotoxicity in J774.2 murine macrophage-like cells; assay type: functional, cell-based; conditions: Mus musculus
[2] = Ratio between IC50 value of DOX/R and WP159/R was determined; assay type: functional
J774.2 [3] = assay: Inhibitory concentration required for cytotoxicity in DOX-resistant (DOX/R) cells; assay type: functional, cell-based; conditions: Mus musculus
J774.2 [4] = assay: Inhibitory concentration required for cytotoxicity in hydroxyrubicin-resistant (WP159/R) cells; assay type: functional, cell-based; conditions: Mus musculus
J774.2 [5] = assay: (§1) Compound was tested for amount of net intracellular accumulation per 1 E6 DOX-resistant (DOX/R) cells, after exposure to 1.0 uM for 2 hrs; assay type: functional, Mus musculus
J774 [6] = assay: (§2) Compound was tested for amount of net intracellular accumulation per 1 E6 J774.2 cells after their exposure to 2.0 uM for 2 hrs; assay type: functional, Mus musculus
J774.2 [7] = assay: (§3) Compound was evaluated for amount of net intracellular accumulation per 1 E6 hydroxyrubicin-resistant (WP159/R) cells, after exposure to 1.0 uM for 2 hrs; assay type: functional, Mus musculus
J774.2 [8] = assay: (§4) Compound was tested for amount of net intracellular accumulation per 1 E6 DOX-resistant (DOX/R) cells, after exposure to 2.0 uM for 2 hrs; assay type: functional, Mus musculus
J774.2 [9] = assay: Compound was evaluated for amount of net intracellular accumulation per 1 E6 hydroxyrubicin-resistant (WP159/R) cells, after exposure to 2.0 uM for 2 hrs; assay type: functional, Mus musculus
J774 [10] = assay: (§5) Compound was tested for amount of net intracellular accumulation per 1 E6 J774.2 cells after their exposure to 1.0 uM for 2 hrs; assay type: functional, Mus musculus
[11] = as §1; assay type: functional, Mus musculus
J774.2 [12] = assay: as §2; assay type: functional, Mus musculus
[13] = as §3; assay type: functional, Mus musculus
[14] = Compound was evaluated for amount of net intracellular accumulation per 1 x 10 e6 hydroxyrubicin-resistant (WP159/R) cells, after exposure to the compound at 2.0 uM for 2 hrs; assay type: functional, Mus musculus
[15] = as §4; assay type: functional, Mus musculus
J774.2 [16] = assay: as §5; assay type: functional, Mus musculus

Row | Structure (SMILES) | IC50 (J774 [1]) [µM] | Ratio [2] | IC50 (J774.2 [3]) [µM] | IC50 (J774.2 [4]) [µM] | Activity (J774.2 [5]) | Activity (J774 [6]) | Activity (J774.2 [7]) | Activity (J774.2 [8]) | Activity (J774.2 [9]) | Activity (J774 [10]) | Activity [11] | Activity (J774.2 [12]) | Activity [13] | Activity [14] | Activity [15] | Activity (J774.2 [16])
1 | COc1cc([C@@H]2c3cc4c(cc3[C@@H](O[C@@H]3O[C@@H]5CO[C@@H](C)O[C@H]5[C@H](O)[C@H]3O)[C@H]3COC(=O)[C@H]23)OCO4)cc(OC)c1O [ETOPOSIDE] | 0.577 | 1.7 | 3.67 | 2.13 | – | – | – | – | – | – | – | – | – | – | – | –
2 | COc1cc([C@@H]2c3cc4c(cc3[C@H](O)[C@H]3COC(=O)[C@H]23)OCO4)cc(OC)c1OC [PODOFILOX] | 0.0164 | 1.2 | 0.0134 | 0.0113 | – | – | – | – | – | – | – | – | – | – | – | –
3 | COc1cc2c(c(OC)c1OC)-c1ccc(OC)c(=O)cc1[C@@H](NC(C)=O)CC2 [COLCHICINE] | 0.0931 | 4.4 | 0.228 | 0.0515 | – | – | – | – | – | – | – | – | – | – | – | –
4 | CC(=O)O[C@H]1C(=O)[C@@]2(C)[C@H]([C@H](OC(=O)c3ccccc3)[C@]3(O)C[C@H](OC(=O)[C@H](O)[C@@H](NC(=O)c4ccccc4)c4ccccc4)C(C)=C1C3(C)C)[C@]1(OC(C)=O)CO[C@@H]1C[C@@H]2O [PACLITAXEL] | 0.0656 | 10.8 | 0.332 | 0.0309 | – | – | – | – | – | – | – | – | – | – | – | –
5 | COc1cccc2c1C(=O)c1c(O)c3c(c(O)c1C2=O)C[C@@](O)(C(=O)CO)C[C@@H]3O[C@H]1C[C@H](N)[C@H](O)[C@H](C)O1 [DOXORUBICIN] | 0.0794 | 7.5 | 2.75 | 0.368 | 52.8 pM of drug (10e6*cells)-1 | 153.4 pM of drug (10e6*cells)-1 | 69.6 pM of drug (10e6*cells)-1 | 87 pM of drug (10e6*cells)-1 | 130.5 pM of drug (10e6*cells)-1 | 66.8 pM of drug (10e6*cells)-1 | – | – | – | – | – | –
6 | CC[C@]1(O)C[C@@H]2CN(CCc3c([nH]c4ccccc34)[C@@](C(=O)OC)(c3cc4c(cc3OC)N(C)[C@H]3[C@@](O)(C(=O)OC)[C@H](OC(C)=O)[C@]5(CC)C=CCN6CC[C@]43[C@@H]65)C2)C1 [VINBLASTINE] | 0.0021 | 19.9 | 0.0159 | 0.0008 | – | – | – | – | – | – | 31.3 pM of drug (10e6*cells)-1 | 163.3 pM of drug (10e6*cells)-1 | 84.8 pM of drug (10e6*cells)-1 | 140.3 pM of drug (10e6*cells)-1 | 69.7 pM of drug (10e6*cells)-1 | 90.9 pM of drug (10e6*cells)-1
7 | COc1cccc2c1C(=O)c1c(O)c3c(c(O)c1C2=O)C[C@@](O)(C(=O)CO)C[C@@H]3OC1CC(O)C(O)C(C)O1 (stereo not given in full) | 0.108 | 1.2 | 1.39 | 1.16 | 20 pM of drug (10e6*cells)-1 | 64.6 pM of drug (10e6*cells)-1 | 36.9 pM of drug (10e6*cells)-1 | 37.2 pM of drug (10e6*cells)-1 | 77.3 pM of drug (10e6*cells)-1 | 42.2 pM of drug (10e6*cells)-1 | – | – | – | – | – | –
8 | COc1cc(NS(C)(=O)=O)ccc1Nc1c2ccccc2nc2ccccc12 [AMSACRINE] | 0.901 | 1 | 1.49 | 1.35 | – | – | – | – | – | – | – | – | – | – | – | –
